Experimental data taken from patent US10160971B2, “Methods of modulating WARS2” (NATIONAL UNIVERSITY OF SINGAPORE, priority 2014, dated 2018).
Residues, ends and D or L forms follow the SMILES beside them. *: point of attachment. Cbz = O=C(OCc1ccccc1)*

Columns and labels:
RPL14a = assay: Loss of RPL14a on WARS2 over-expression, reversal by proteasome inhibitor; format: cell-based
Method: Cells were lysed in cell lysis buffer (9803, Cell Signaling) containing protease inhibitor (Sigma) and phosphatase inhibitor (Halt Phosphase inhibitor Cocktail, Thermo Scientific) and PMSF (0.5 mM Active Motif). Cell lysate was then briefly sonicated and centrifuged for 10 minutes at 14,000 g (4° C.). Supernatants were retained and protein concentrations were determined using the bicinchoninic acid assay with bovine serum albumin standards. Protein samples (20 μg) were separated on 10% or 13% SDS-polyacrylamide gels, transferred to nitrocellulose membranes, and probed with antibodies as described in the figure legends. Immunoreactive bands were visualized with a horseradish peroxidase-conjugated secondary antibody using Peroxide and LumiGlo reagents (Cell Signaling).

[1] = target: T1, human mitochondrial WARS2 (Homo sapiens, UniProt Q9UGM6); assay: WARS2 AMP-Glo enzyme assay; format: biochemical; details: indolmycin 10 micromolar; enzyme 200 nM; 37° C. one hour
T1 construct: GST (inferred from GSH-bead purification; made in house; own inference)
T1 sequence (Q9UGM6 19-360): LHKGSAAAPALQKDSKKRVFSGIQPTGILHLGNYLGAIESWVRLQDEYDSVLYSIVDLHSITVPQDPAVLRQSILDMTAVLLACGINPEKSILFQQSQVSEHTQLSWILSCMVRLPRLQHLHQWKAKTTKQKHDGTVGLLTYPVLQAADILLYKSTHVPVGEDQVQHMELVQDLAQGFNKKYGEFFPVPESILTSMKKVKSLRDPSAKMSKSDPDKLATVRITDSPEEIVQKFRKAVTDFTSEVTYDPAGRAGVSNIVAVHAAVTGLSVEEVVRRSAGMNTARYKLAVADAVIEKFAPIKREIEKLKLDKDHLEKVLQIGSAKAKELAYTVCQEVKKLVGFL
Method: (§1) The WARS and WARS2 enzyme assay was performed using an ATP depletion assay based on a chemilumines optimized with the AMP-Glo™ reagent (Promega) using 96-well format assay. Reaction buffer contained 25 mM Tris-HCL pH7.2, 10 mM MgCl2, 50 mM KCl, 2.5 mM dithiothreitol, 0.1 mg/mL bovine serum albumin, 0.2 mM spermine, 10 U/mL pyrophosphatase and enzyme concentration used was 200 nM. Substrate concentrations were as follows: L-tryptophan 100 μM, bulk E. coli tRNA (Sigma) 200 μg/mL and ATP 100 μM. Reaction was carried out at 37° C. for one hour, followed by adding reagent I (AMP-glo kit). The plate was incubated at room temperature for another hour. At the end of the hour the AMP detection solution was added to all the samples and incubated for one hour at room temperature. Data was collected by measuring the luminescence with the Infinite M200 microplate Reader (Tecan). Indolmycin was added at 10 micromolar concentration where indicated.

human cytosolic WARS = target: T2, human cytosolic WARS (Homo sapiens, UniProt P23381); assay: WARS AMP-Glo enzyme assay; format: biochemical; details: indolmycin 10 micromolar; enzyme 200 nM; 37° C. one hour
T2 sequence (P23381 1-471): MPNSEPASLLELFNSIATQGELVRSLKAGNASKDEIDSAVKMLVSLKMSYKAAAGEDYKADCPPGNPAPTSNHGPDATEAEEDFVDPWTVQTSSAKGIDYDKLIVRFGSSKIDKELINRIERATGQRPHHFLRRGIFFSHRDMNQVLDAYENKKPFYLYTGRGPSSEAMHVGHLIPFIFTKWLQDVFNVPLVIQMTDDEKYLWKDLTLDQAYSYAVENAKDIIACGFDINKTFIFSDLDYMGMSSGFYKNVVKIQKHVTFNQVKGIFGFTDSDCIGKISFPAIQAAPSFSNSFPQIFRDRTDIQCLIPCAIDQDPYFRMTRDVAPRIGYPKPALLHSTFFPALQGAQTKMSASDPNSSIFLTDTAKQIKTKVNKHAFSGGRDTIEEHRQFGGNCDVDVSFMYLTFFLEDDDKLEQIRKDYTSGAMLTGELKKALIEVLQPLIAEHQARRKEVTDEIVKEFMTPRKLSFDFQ
Method: as §1

human WARS2 mRNA = assay: siWARS2 knock down in HEK 293 (QPCR); format: cell-based; details: non targeting control = 1; for WARS2 mRNA expression, Experiment 1 / WARS2 mRNA expression, Experiment 2 / WARS2 mRNA expression, Experiment 3 / WARS2 mRNA expression, Experiment 4 / WARS2 mRNA expression, Experiment 5: 120 nM siRNA, QPCR normalized to GAPDH (ddCt); for WARS2 mRNA expression, Average: average of 5 experiments
Method: HEK cells were seeded the day before transfection on 10 cm dish. At a density of ˜50%, transfection was performed using RNAimax (manufacturer's protocol). siRNA was prepared by using a mixture of 120 nM siRNA and 20 μl lipofectamin RNAimax in 1 ml OPTIMEM. Cells were incubated, washed 1× with PBS, and then covered with 5 ml OPTIMEM and the lipofectamin/siRNA mixture added dropwise. Cells were incubated (6 h) and media then changed to (DMEM/10% FBS). RNA was extracted as per protocol (Qiagen). RNA quantification was assessed using Nanodrop and the quality was determined based on OD ratio 260 nm/280 nm. Reverse transcription was performed using 1 μg RNA (Biorad iScript™ cDNA synthesis protocol) and QPCR performed using the QuantiFAST SYBR green protocol.
All samples were analyzed in duplicates and the mean and standard deviation were determined. Specificity of the amplification was determined by a melting curve ranging from 60-95° C. Normalization to GAPDH was performed using the standard ddCt method.

Wars2 = assay: In vivo knock down of Wars2 in rat eye using cholesterol modified siRNA; details: F344 rats; 50 μg intravitreously; 48 hours; versus non-targeting siRNA in contralateral eye
Method: Both non-targeting (NT) siRNA and siWars2 were purchased from Dharmacon and formulated in the sterile siRNA buffer provided. Fifty (50) μg of siWars2 was injected intravitreously into one eye of each of three F344 rats in a total volume of 5 μl. The same dose of the NT control siRNA was injected into the contralateral eye of each animal. Retina and choroid were collected after 48 hours, and total RNA was extracted by Trizol (Ambion). cDNA was then synthesized according to the manufacturer's protocol (BioRad).
Real time PCR reactions to measure Wars2 expression were performed with the SYBRgreen mastermix (Qiagen) and normalized to GAPDH mRNA level by using the following primers: […]

[2] = system: LASER-induced choroidal neovascularization (CNV); assay: Rat model of LASER-induced choroidal neovascularization (CNV); format: in vivo; details: Brown Norway rats; bilateral intravitreal injection Day 3 (siRNA 100 μg/eye, Ab 5 μg/eye); fluorescein angiography Day 22
Method: Non-targeting siRNA (negative control), Wars2 siRNA (test agent), and anti-VEGF Ab (positive control) were administered intravitreously into the eyes of Brown Norway female rats aged 6-8 weeks, according to the following design: • Day 1: Bilateral Laser treatment to produce three (3) lesions per eye • Day 3: Bilateral intravitreal injection of negative control, positive control, or test agent • Day 22: In-vivo fluorescein angiography • Day 22: Enucleation of eyes and fixation for future histological analyses • Three (3) groups of five (5) rats were used, as set out in Table 4.
Animals were dilated with 1% Cyclogyl solution and protected from light. Following observable dilation, the animals were sedated with ketamine/xylazine. The fundus of sedated animals was observed and recorded using a Micron III small animal funduscope (Phoenix Research). Laser treatments were performed using a thermal laser which was connected through the Micron III custom laser attachment. […] The resultant fundus images were recorded and evaluated to confirm that the laser had successfully produced a bubble through the Bruch's membrane. […]
All TIFF images were quantified using computerized image-analysis software (ImageJ, NIH, USA). Lesions were then individually traced free-hand in order to quantify the area in pixels and the colour fundus photos were used as a reference for lesion location. […]

WARS secretion = WARS secretion in HUVEC cell media; format: cell-based, human; details: HUVEC cells
Method: Human embryonic kidney (HEK) 293 cells were maintained in DMEM supplemented with 10% foetal calf serum and 100 U/ml penicillin and 100 μg/ml streptomycin. Human umbilical vein endothelial (HUVEC) cells and medium (EBM- and EBM-2 single Quats) were purchased from Lonza and used prior to passage 7. For plasmid transfections (for HEK293), cells were seeded a day before at 70% confluence and lipofectamine […] (InvitroGene) transfection reagents were used according to the company's instruction. For HUVEC transfection, Polyplus jetPEI-HUVEC transfection reagent (POLYPLUS-TRANSFECTION Inc. New York) was used according to the company's instruction. For gene transfer, HUVEC were grown to 80% confluence in 6-well plates or T75 flasks. Transduction of cells was performed with a multiplicity of infection (MOI) of 200 plaque-forming units (pfu) in a total volume of 1 ml (6-well plates) or 10 ml (T75 flasks) in HUVEC growth medium. […]
HUVEC cells were seeded in 6-well plates. […] The knockdown efficacy could not be determined by western blot since no antibody against WARS2 can detect endogenous WARS2, although two anti-WARS2 antibodies we made can detect WARS2 in lysates from cells expressing WARS2-flag. […]

Row | Molecule | WARS2 mRNA expression, Experiment 1 (human WARS2 mRNA) | WARS2 mRNA expression, Experiment 2 (human WARS2 mRNA) | WARS2 mRNA expression, Experiment 3 (human WARS2 mRNA) | WARS2 mRNA expression, Experiment 4 (human WARS2 mRNA) | WARS2 mRNA expression, Experiment 5 (human WARS2 mRNA) | WARS2 mRNA expression, Average (human WARS2 mRNA) | other results
1 | CC(C)C[C@@H](C=O)NC(=O)[C@H](CC(C)C)NC(=O)[C@H](CC(C)C)NC(=O)OCc1ccccc1 [MG132] (Cbz-Leu-Leu-Leu-aldehyde) |  |  |  |  |  |  | loss of RPL14a caused by over-expression of WARS2 (RPL14a): reversed
2 | CN=C1NC(=O)[C@H]([C@H](C)c2c[nH]c3ccccc23)O1 [indolmycin] |  |  |  |  |  |  | inhibition of WARS2 enzyme activity [1]: inhibited human mitochondrial WARS2; inhibition of WARS enzyme activity (human cytosolic WARS): not human cytosolic WARS activity
3 | siRNA 3: Sense 5′-GCUGGACAAGGACCAUUUA-3′ (SEQ ID NO: 54), antisense 5′-UAAAUGGUCCUUGUCCAGC-3′ (SEQ ID NO: 55) (listed as RNA, chemistry not given here) | 0.43 | 0.22 | 0.43 | 0.37 | 0.30 | 0.35 | 
4 | siRNA 2: Sense 5′-CCGACAUUCUGUUGUACAA-3′ (SEQ ID NO: 52), antisense 5′-UUGUACAACAGAAUGUCGG-3′ (SEQ ID NO: 53) (listed as RNA, chemistry not given here) | 0.47 | 0.14 | 0.13 | 0.11 | 0.09 | 0.19 | 
5 | Wars2 siRNA: Rat Wars2 siRNA from Dharmacon: sense 5′-GCUCCAAUCAGAAGUGAUU-3′ (SEQ ID NO: 48), antisense 5′-UCACUUCUGAUUGGAGCUU-3′ (SEQ ID NO: 49) (cholesterol-modified siRNA, position of cholesterol not given here) |  |  |  |  |  |  | Wars2 expression in retina and choroid (Wars2): greater inhibition of Wars2 expression; extent of neovascularization [2]: significant reduction in the extent of neovascularization
6 | siRNA 1: Sense 5′-GCAUUCAACCUACAGGAAU-3′ (SEQ ID NO: 50), antisense 5′-AUUCCUGUAGGUUGAAUGC-3′ (SEQ ID NO: 51) (listed as RNA, chemistry not given here) | 0.26 | 0.13 | 0.18 | 0.13 | 0.14 | 0.17 | 
7 | C[C@H]1CCC/C=C/[C@@H]2C[C@H](O)C[C@H]2[C@H](O)/C=C/C(=O)O1 [brefeldin A] |  |  |  |  |  |  | WARS secretion in presence of inhibitor of golgi-mediated secretion (WARS secretion): No effect
